# Test results as given in ChEMBL document CHEMBL6153077, “Design, synthesis, and anti-liver fibrosis activity of novel non-steroidal vitamin D receptor agonists based on open-ring steroid scaffold” (Eur J Med Chem, 2025).
# Calls of active or inactive are those of the source. The rule behind the calls is not given here.
# Assays:
# [1] = molecular target: T1, Vitamin D3 receptor (Homo sapiens) (UniProt P11473); assay: Binding affinity to full-length VDR (unknown origin) at 1 uM by fluorescence polarization assay relative to control
# T1 sequence (whole entry): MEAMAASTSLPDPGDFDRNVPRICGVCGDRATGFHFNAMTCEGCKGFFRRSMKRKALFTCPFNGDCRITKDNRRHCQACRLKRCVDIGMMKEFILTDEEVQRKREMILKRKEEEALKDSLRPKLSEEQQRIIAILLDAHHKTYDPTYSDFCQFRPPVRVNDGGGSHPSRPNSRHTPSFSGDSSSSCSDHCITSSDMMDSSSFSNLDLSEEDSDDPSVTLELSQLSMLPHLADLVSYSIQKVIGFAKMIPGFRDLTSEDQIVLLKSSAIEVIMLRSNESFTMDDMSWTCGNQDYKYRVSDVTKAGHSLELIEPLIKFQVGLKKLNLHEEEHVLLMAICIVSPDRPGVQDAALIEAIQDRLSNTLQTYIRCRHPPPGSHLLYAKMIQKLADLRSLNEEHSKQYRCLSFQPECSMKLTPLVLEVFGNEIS
# [2] = test system: LX-2; assay: Inhibition of HSC activation in TGF-beta1-treated human LX2 cells assessed as decrease in alpha-SMA level at 0.5 uM incubated for 24 hrs by Western blot analysis; format: functional, cell-based
# [3] = test system: LX-2; assay: Inhibition of HSC activation in TGF-beta1-treated human LX2 cells assessed as decrease in COL1A1 mRNA level at 0.5 uM incubated for 24 hrs by qPCR analysis; format: functional, cell-based
# [4] = test system: LX-2; assay: Inhibition of HSC activation in TGF-beta1-treated human LX2 cells assessed as decrease in ACTA2 mRNA level at 0.5 uM incubated for 24 hrs by qPCR analysis; format: functional, cell-based
# [5] = test system: LX-2; assay: Inhibition of HSC activation in TGF-beta1-treated human LX2 cells assessed as decrease in collagen-I level at 0.5 uM incubated for 24 hrs by Western blot analysis; format: functional, cell-based
# [6] = molecular target: T1, Vitamin D3 receptor (Homo sapiens); assay: Agonist activity at VDR in human LX2 cells assessed as increase in CYP24A1 level at 0.5 uM by qRT-PCR analysis; format: cell-based; conditions: filed as agonist
# [7] = test system: LX-2; assay: Inhibition of HSC activation in TGF-beta1-treated human LX2 cells harboring VDR siRNA assessed as decrease in alpha-SMA level at 0.5 uM incubated for 24 hrs by Western blot analysis; format: functional, cell-based
# [8] = test system: LX-2; assay: Inhibition of HSC activation in TGF-beta1-treated human LX2 cells harboring VDR siRNA assessed as decrease in collagen-I level at 0.5 uM incubated for 24 hrs by Western blot analysis; format: functional, cell-based
# [9] = molecular target: T1, Vitamin D3 receptor (Homo sapiens); assay: Agonist activity at human VDR in HEK293 cells co-expressing 3-Luc/RXRalpha assessed as transcriptional activity at 0.5 uM by dual luciferase reporter assay; format: cell-based; conditions: filed as agonist
Activity ([1]; filed as agonist) [%],SMILES,also measured
88,CC(C)(C)c1ccc(C(=O)COc2ccc(/C=C/C3=C[C@@H](O)[C@@H](O)[C@H](O)C3)c3c2CCCC3)cc1,
72,CC(C)(O)COc1ccc(/C=C/C2=C[C@@H](O)[C@@H](O)[C@H](O)C2)c2c1CCCC2,
49,CCC(O)(CC)CCCCOc1ccc(C#CC2=C[C@@H](O)[C@@H](O)[C@H](O)C2)c2c1CCCC2,
56,CCN(CC)C(=O)COc1ccc(/C=C/C2=C[C@@H](O)[C@@H](O)[C@H](O)C2)c2c1CCCC2,
45,O=C(COc1ccc(/C=C/C2=C[C@@H](O)[C@@H](O)[C@H](O)C2)c2c1CCCC2)N1CCOCC1,
50,CC(C)(O)CCCCOc1ccc(C#CC2=C[C@@H](O)[C@@H](O)[C@H](O)C2)c2c1CCCC2,
65,CC(C)(O)CCCCOc1cccc2c1CCCC2OC(=O)C1=C[C@@H](O)[C@@H](O)[C@H](O)C1 (stereo not given in full),
61,CCC(O)(CC)COc1ccc(/C=C/C2=C[C@@H](O)[C@@H](O)[C@H](O)C2)c2c1CCCC2,
69,CC(C)(O)CCCOc1cccc2c1CCCC2OC(=O)C1=C[C@@H](O)[C@@H](O)[C@H](O)C1 (stereo not given in full),

# Second part, the compound before the results:
SMILES,Activity ([1]; filed as agonist) [%],also measured
C=CCC(O)(CC=C)CCCOc1cccc2c1CCCC2OC(=O)C1=C[C@@H](O)[C@@H](O)[C@H](O)C1 (stereo not given in full),51,
CCC(OC(=O)C1=C[C@@H](O)[C@@H](O)[C@H](O)C1)c1cccc(OCCCC(C)(C)O)c1 (stereo not given in full),84,inhibition [2]: Active; inhibition [3]: Active; inhibition [4]: Active; inhibition [5]: Active
CCC(O)(CC)CCCOc1ccc(C#CC2=C[C@@H](O)[C@@H](O)[C@H](O)C2)c2c1CCCC2,,Activity [1]: inactive
OCc1ccc(/C=C/c2ccc(OCCCC(F)(F)F)cc2)cc1CO,51,
CC(C)(O)CCCCOc1ccc(/C=C/C2=C[C@@H](O)[C@@H](O)[C@H](O)C2)c2c1CCCC2,,Activity [1]: 21%
CC(C)(O)CCCOc1cccc(COC(=O)C2=C[C@@H](O)[C@@H](O)[C@H](O)C2)c1,49,
CCN(CC)CCCOc1cccc2c1CCCC2OC(=O)C1=C[C@@H](O)[C@@H](O)[C@H](O)C1 (stereo not given in full),64,
CCC(O)(CC)CCCn1ccc2c(/C=C/C3=C[C@@H](O)[C@@H](O)[C@H](O)C3)cccc21,64,Activity [6]: Active
CCn1cc(C(CC)(CC)c2ccc(OCC(O)CO)c(C)c2)cc1C(=O)NCC(C)(C)O (stereo not given),57,inhibition [7]: inactive; inhibition [8]: inactive
CCCC(O)(CCC)CCCOc1cccc2c1CCCC2OC(=O)C1=C[C@@H](O)[C@@H](O)[C@H](O)C1 (stereo not given in full),77,Activity [9]: Active; inhibition [3]: Active; inhibition [4]: Active; Activity [6]: Active
CCCC(OC(=O)C1=C[C@@H](O)[C@@H](O)[C@H](O)C1)c1cccc(OCCCC(C)(C)O)c1 (stereo not given in full),77,inhibition [2]: Active; inhibition [3]: Active; inhibition [4]: Active; inhibition [5]: Active
